# Experiments:
# [1] = Flowability: drainage time through a wide-mouth funnel; settings: dry powder flowability
# Source text: Also, the powder must be flowable (low angle of repose), with the flow measured as the drainage time through a wide-mouth funnel.
# Rats = settings: no unit in table, b36: normally expressed as mg per kilogram of body mass; cited from earlier work
# [2] = Apparent density by volume increase of a dispersion of known weight of solid in mineral oil; assay type: physicochemical
# Source text: If batch mix operations (illustrated in FIG. 1) are used so that time of mixing is not critical, particle size of the components used in the blend can be as large as 18 mesh (1.0 mm). However, if the mixing is to be based on a continuous mix process (FIG. 2), timing becomes more critical, requiring that the polymeric components disperse and begin hydration prior to reaching the well head. In this case, the particle size of the components preferably is 40 mesh (0.420 mm) or smaller, but more preferably 80 mesh (0.177 mm) or smaller. Also, it is preferred that the particle size and the apparent density of all the components be about the same (to minimize segregation during shipping and storage). Apparent densities of selected commercial components, as measured by measuring volume increase of a dispersion of a known weight of solid in mineral oil, are shown in Table 2. A dry blend preferably will be formed of components for each function in a fracturing fluid having apparent densities and particle sizes matched to the best extent possible. Inert solids, such as fumed silica, may be combined with active ingredients to form solid particles having a preferred density.
Compound,Time in Minutes (drainage time through a wide-mouth funnel) [1],Acute Oral Effect LD50 Rats (Rats),Apparent Density [2]
N.N.O=S(=O)(O)OOS(=O)(=O)O [Ammonium Persulfate],0.2 min,,
C[N+](C)(C)CCO.[Cl-] [Choline Chloride],,"3,400",
CN1CSC(=S)N(C)C1 [Dazomet 99%],,,1.111 g/mL
"CN1CSC(=S)N(C)C1 [Dazomet, tetrahydro-3,5-dimethyl-2H-1,3,5-thiadiazine-2-thione]",,519,
Cc1cc(O)cc(C)c1Cl [PCMX],,"3,830",
[Cl-].[K+] [Potassium Chloride],0.05 min,,
O=S([O-])O.[Na+] [Sodium Bisulfite],,"1,131",
O=C1O[C@H]([C@H](O)CO)C([O-])=C1O.[Na+] [Sodium Erythorbate],,"5,000",
O=S([O-])([O-])=S.[Na+].[Na+] [Sodium Thiosulfate],,"2,890",1.667 g/mL
C[N+](C)(C)C.[Cl-] [Tetramethylammonium Chloride],,94,
